In patent US20100048644A1 (BEIJING HUAANFO BIOMEDICAL RESEARCH CENTRE INC., priority 2006, published 2010):
“And” between values parts separate entries of the source, which are not always exact repeats. Equal values may be shown once.

Assays:
[1] = test system: spontaneous hypertensive rats (SHR) with prostate hyperplasia; experiment: Urodynamic parameters and urine volumes in spontaneous hypertensive rats (SHR) with prostate hyperplasia; assay type: in vivo, rat (SHR); details: Amlodipine 0.5 mg/kg (A3) oral once daily 14 days
Procedure: (§1) In the treatment groups, the rats were orally administered by infusion at 1 ml/100 g body weight once daily for 14 consecutive days after 7-day injection with testosterone propionate. In the blank and model groups, the rats were orally perfused with isovolumetric physiological saline.
(§2) The rats were anaesthetized by a peritoneal injection of 20% ethyl carbamate at a dose of 1000 mg/kg. The rat bladder was exposed by cutting a longitudinal incision on the upper of pubic arch. Piercing the top of bladder made a little hole, where a catheter with cannulas was inserted. The outside cannula (Φ 1.2 mm) with a pressreceptor was linked to PC-Lab multi-lead physiological recording system. The inside cannula (Φ 0.61 mm) was connected to an injection pump with constant infusion speed (2 ml/h). After last administration, the urodynamic parameters, single urine volume, and residual urine volume in rats were respectively collected.
(§3) Data were presented as mean±SD. One way-ANOVA was employed for group comparison.

[2] = test system: patients with low urinary tract syndrome (LUTS) and mild to moderate hypertension; experiment: Clinical study, Amlodipine 5 mg vs Terazosin 2 mg for 4 weeks: IPSS, urinary flow rate, blood pressure; assay type: in vivo, human; design: key to BOO (obstructive symptoms score) / OAB (irritative symptoms score): IPSS sub-scores in points (symptom items of IPSS); details: for Percentage of improvement at Week 4: BOO / Percentage of improvement at Week 4: DBP / Percentage of improvement at Week 4: IPSS / Percentage of improvement at Week 4: OAB / Percentage of improvement at Week 4: Qave / Percentage of improvement at Week 4: Qmax / Percentage of improvement at Week 4: SBP: Week 4 vs Week 0
From the text: 1) Male, 50-75 years old. […] 3) International Prostate Symptom Score (IPSS)≧8 points
Storage, reservation and delivery of drugs were in accordance with Standard Operation Procedure (SOP).
Obstructive symptoms score includes hesitancy of micturition, reduced or interrupted urinary stream and sensation of incomplete bladder emptying, which mainly reflect BOO. Irritative symptoms score refers to urinary urgency and frequency, and an increase in night micturition, reflecting OAB symptoms. In this study, a total score of IPSS is considered as primary index. Sub-scores on BOO and OAB were also considered.
All data, doubly entered using Epi-info 3.0 and presented as mean±standard deviation (SD), were analyzed using SAS 8.0. A paired t-test was employed to compare pre- and post-treatment scores, and a multiple regression analysis was further performed to adjust for important covariates. Difference was considered significant at P<0.05.

rats with BPH = experiment: Urodynamic parameters and urine volumes in castrated, testosterone propionate-treated SD rats with BPH; assay type: in vivo, rat (male SD)
Procedure: Afterwards, the bilateral testicles of the rats were resected under an aseptic condition. Then the rats received an intramuscular injection of penicillin at 20000 U/kg/d for 3 days, and 1 week later a subcutaneous injection of testosterone propionate (dissolved in olive oil) at 0.5 mg/pec, once daily for 21 consecutive days.
as §1, §2, §3

[3] = Week 0 (before treatment), groups Amlodipine 5 mg (N=90), Terazosin 2 mg (N=62)
[4] = Week 4, Amlodipine 5 mg or Terazosin 2 mg oral for 4 consecutive weeks
[5] = Amlodipine 5 mg or Terazosin 2 mg oral for 4 weeks
[6] = multiple regression adjusted for age and BMI, Amlodipine 5 mg vs Terazosin 2 mg, 4 weeks
[7] = multiple regression, crude, Amlodipine 5 mg vs Terazosin 2 mg, 4 weeks
[8] = Amlodipine 0.25 mg/kg (A1) oral once daily 14 days
[9] = Amlodipine 0.5 mg/kg (A2) oral once daily 14 days

CCOC(=O)C1=C(COCCN)NC(C)=C(C(=O)OC)C1c1ccccc1Cl (stereo not drawn) [Amlodipine]
Interval of micturition [1]: 786.0 ± 237.5 s | Peak value of micturition pressure [1]: 31.8 ± 7.3 mmHg | Point pressure of micturition [1]: 31.4 ± 3.6 mmHg | Qave. (average urinary flow rate) [1]: 4.4 ± 1.6 mL/s | Time of micturition [1]: 8.0 ± 1.1 s | BOO (obstructive symptoms score) [2, 3]: 9.1 ± 4.2 | DBP [2, 3]: 88.6 ± 8.9 mmHg | OAB (irritative symptoms score) [2, 3]: 7.3 ± 3.3 | Qave [2, 3]: 8.9 ± 4.1 mL/s | Qmax [2, 3]: 17.3 ± 6.7 mL/s | SBP [2, 3]: 155.4 ± 16.1 mmHg | BOO (obstructive symptoms score) [2, 4]: 5.8 ± 4.6 | DBP [2, 4]: 82.0 ± 8.9 mmHg | IPSS [2, 4]: 11.1 ± 6.7 | OAB (irritative symptoms score) [2, 4]: 5.5 ± 3.2 | Qave [2, 4]: 8.8 ± 3.8 mL/s | Qmax [2, 4]: 17.7 ± 6.9 mL/s | SBP [2, 4]: 140.9 ± 15.4 mmHg | Percentage of improvement at Week 4: BOO [2, 5]: 33.3 ± 53.2 % | Percentage of improvement at Week 4: DBP [2, 5]: 7.2 ± 7.1 % and 7.22 ± 7.09% | Percentage of improvement at Week 4: IPSS [2, 5]: 30.2 ± 39.7 % and 30.17 ± 39.7% | Percentage of improvement at Week 4: OAB [2, 5]: 17.3 ± 49.3 % | Percentage of improvement at Week 4: Qave [2, 5]: 5.0 ± 35.2% and 5.04 ± 35.25% | Percentage of improvement at Week 4: Qmax [2, 5]: 7.1 ± 41.1% and 7.09 ± 41.10% | Percentage of improvement at Week 4: SBP [2, 5]: 8.9 ± 9.6 % and 8.89 ± 9.61% | Percentage of improvement, (2)-(1) Amlodipine minus Terazosin, β Adjust: BOO [2, 6]: 0.3 | Percentage of improvement, (2)-(1) Amlodipine minus Terazosin, β Adjust: DBF [2, 6]: 5.1 | Percentage of improvement, (2)-(1) Amlodipine minus Terazosin, β Adjust: IPSS [2, 6]: 1.4 | Percentage of improvement, (2)-(1) Amlodipine minus Terazosin, β Adjust: OAB [2, 6]: 8.6 | Percentage of improvement, (2)-(1) Amlodipine minus Terazosin, β Adjust: Qave [2, 6]: −8.4 | Percentage of improvement, (2)-(1) Amlodipine minus Terazosin, β Adjust: Qmax [2, 6]: −5.0 | Percentage of improvement, (2)-(1) Amlodipine minus Terazosin, β Adjust: SBP [2, 6]: 5.7 | Percentage of improvement, (2)-(1) Amlodipine minus Terazosin, β Crude: BOO [2, 7]: 1.1 | Percentage of improvement, (2)-(1) Amlodipine minus Terazosin, β Crude: DBF [2, 7]: 4.9 | Percentage of improvement, (2)-(1) Amlodipine minus Terazosin, β Crude: IPSS [2, 7]: 2.0 | Percentage of improvement, (2)-(1) Amlodipine minus Terazosin, β Crude: OAB [2, 7]: 9.6 | Percentage of improvement, (2)-(1) Amlodipine minus Terazosin, β Crude: Qave [2, 7]: −8.7 | Percentage of improvement, (2)-(1) Amlodipine minus Terazosin, β Crude: Qmax [2, 7]: −5.7 | Percentage of improvement, (2)-(1) Amlodipine minus Terazosin, β Crude: SBP [2, 7]: 5.6 | Interval of micturition (rats with BPH; [8]): 734.8 ± 210.5 s | Peak value of micturition pressure (rats with BPH; [8]): 37.5 ± 7.0 mmHg | Point pressure of micturition (rats with BPH; [8]): 33.4 ± 3.3 mmHg | Qave. (average urinary flow rate) (rats with BPH; [8]): 3.7 ± 1.2 mL/s | Time of micturition (rats with BPH; [8]): 8.9 ± 1.6 s | Interval of micturition (rats with BPH; [9]): 762.3 ± 274.8 s | Peak value of micturition pressure (rats with BPH; [9]): 30.5 ± 5.5 mmHg | Point pressure of micturition (rats with BPH; [9]): 30.6 ± 3.9 mmHg | Qave. (average urinary flow rate) (rats with BPH; [9]): 4.0 ± 1.9 mL/s | Time of micturition (rats with BPH; [9]): 8.4 ± 1.8 s

COc1cc2nc(N3CCN(C(=O)C4CCCO4)CC3)nc(N)c2cc1OC (stereo not drawn) [Terazosin]
indices improved between week 0 and week 4 [2, 5]: remarkable improvement in IPSS, BOO-related score, maximum urinary flow rate (Qmax) and Qave, and a decrease in systolic blood pressure | indices without improvement between week 0 and week 4 [2, 5]: no improvement in OAB-related score and diastolic blood pressure | BOO (obstructive symptoms score) [2, 3]: 6.6 ± 3.5 | DBP [2, 3]: 86.6 ± 9.0 mmHg | IPSS [2, 3]: 13.2 ± 4.4 | OAB (irritative symptoms score) [2, 3]: 6.6 ± 3.0 | Qave [2, 3]: 8.9 ± 3.9 mL/s | Qmax [2, 3]: 17.7 ± 7.0 mL/s | SBP [2, 3]: 152.8 ± 15.9 mmHg | BOO (obstructive symptoms score) [2, 4]: 4.2 ± 4.3 | DBP [2, 4]: 84.5 ± 11.4 mmHg | IPSS [2, 4]: 9.4 ± 5.9 | OAB (irritative symptoms score) [2, 4]: 5.3 ± 2.8 | Qave [2, 4]: 9.9 ± 4.2 mL/s | Qmax [2, 4]: 19.4 ± 7.4 mL/s | SBP [2, 4]: 147.0 ± 17.8 mmHg | Percentage of improvement at Week 4: BOO [2, 5]: 32.2 ± 63.5 % | Percentage of improvement at Week 4: DBP [2, 5]: 2.3 ± 10.1% and 2.31 ± 10.12% | Percentage of improvement at Week 4: IPSS [2, 5]: 28.1 ± 40.5 % and 28.15 ± 40.5% | Percentage of improvement at Week 4: OAB [2, 5]: 7.7 ± 54.8% | Percentage of improvement at Week 4: Qave [2, 5]: 13.8 ± 25.9 % and 13.77 ± 25.86% | Percentage of improvement at Week 4: Qmax [2, 5]: 12.8 ± 30.5 % and 12.8 ± 30.47% | Percentage of improvement at Week 4: SBP [2, 5]: 3.3 ± 11.9 % and 3.28 ± 11.92%
